Assay results as given in patent publication US6825340B2, “Methods and reagents for inactivating ribonucleases” (Ambion, Inc., priority 1998, dated 2004).

How the values were obtained:
[1] = DTNB test of DTT reducing strength (absorbance at 412 nm); format: physicochemical
From the text: DTT has low redox potential (−0.33 volts at pH 7.0) and is capable of maintaining monothiols effectively in the reduced form and of reducing disulfides quantitatively (Cleland, 1964). DTT acts as a protective agent for free sulfhydryl groups. […] DTT's reducing activity can be accurately assayed using 5, 5′-dithiobis (2-nitrobenzoic acid) or DTNB (Cleland, 1964). The reduction of DTNB mediated by DTT generates a yellow color whose absorbance can be measured at 412 nm using a spectrophotometer. RNase A, RNase 1 and RNase T1 all contain disulfide bonds (Ryle and Anfinesen, 1957; Barnard, 1969) and, therefore, are susceptible to reduction.
FIG. 5. DTT is oxidized by incubating at 65° C. for 6 days. DTT was made to 100 mM in water and incubated at 65° C. for 6 days. Fresh DTT and the heated 100 mM were diluted in water to different concentrations and subjected to the DTNB test. Absorbance at 412 nm indicates the reducing strength of the DTT.
To assess the effect that the ribonuclease mixture has on the oxidation of DTT, the RNase mixture at 1 μg/ml was incubated with DTT at 0.05, 0.1, 0.15, 0.2 and 0.25 mM at 60° C. for 20 minutes. 0.1 ml of each sample was added to 0.8 ml of 0.1 M KPO4 (pH 7.7) and 0.1 ml DTNB in 0.1 KPO4 (pH 7.7). Samples which were not treated with heat were also subjected to the DTNB assay for comparison. The DTNB reaction mixtures were incubated at 21° C. for 10 minutes to allow the yellow color to develop. Absorbances were measured at 412 nm. The results were that there was no difference in the reactivity of the DTT whether it had been used to inactivate the RNase mixture or not.
DTT was made to 100 mM in water and incubated at 65° C. for 6 days. This material was diluted to 50, 100, 150, 200, 250 micromolar in water and then assayed for its reducing strength using the DTNB test described in Example 7 and compared to the same concentrations of DTT made fresh in water. The absorbance at 412 nm directly correlates with reducing strength. The greater the absorbance, the greater the reducing power.

[2] = tested on: unknown RNase in alkaline phosphatase storage solution; test: Isotopic assay of RNase activity in alkaline phosphatase storage solution; format: biochemical; details: 60° C. for 20 minutes
Experimental: The isotopic RNase assay uses a radioactive RNA synthesized by in vitro transcription as the RNA substrate. The RNA used in the following examples was 1.9 or 4.0 kb in length. The radioactive RNA was synthesized using a T7 MEGAscript™ transcription kit (Ambion, Inc.). The in vitro transcription reaction mixture contained 1.0 μg of linearized DNA template, 2 μl of 10× transcription buffer, 1 μl of UTP[α-^32P] (800 Ci/mmol), 2 μl of each 75 mM ribonucleotide and 2 μl of the T7 RNA polymerase mix, final volume of 20 μl. The reaction was incubated at 37° C. for 3 hours. The transcript was precipitated with 7.5 M LiCl and resuspended in 0.1 ml of 1 mM sodium citrate (pH 6.6) or RNase free water.
2 μl of the RNA probe was incubated with the test sample in a final volume of 10 μl for about 16 hours at 37° C. After incubation, the RNA was fractionated in a denaturing 6 M urea 5% acrylamide gel and then the gel was exposed to x-ray film. Untreated RNA was also fractionated as a control with the test samples for comparative purposes. […] RNase activity was indicated by the intensity of the RNA decreasing and by the appearance of smearing below the intact RNA. […]
A commercial solution of unknown composition to the inventors designed to stabilize the storage of alkaline phosphatase was detected to have RNase activity using the isotopic assay. […]

O[C@H](CS)[C@H](O)CS [DTT, dithiothreitol]
stability of DTT reducing strength ([1]; DTT 100 mM in water incubated at 65° C. for 6 days): completely oxidized
reactivity of DTT after use to inactivate the RNase mixture vs non-reacted DTT ([1]; RNase mixture 1 μg/ml, DTT 0.05-0.25 mM, 60° C. for 20 minutes): no difference
loss of DTT reducing power with each heating step ([1]; sequential inactivations, 60° C. for 20 minutes): no detectable loss
RNase activity of alkaline phosphatase storage solution ([2]; 2 mM DTT): no detectable RNase activity
RNase activity of alkaline phosphatase storage solution ([2]; 5 mM DTT): no detectable RNase activity
